{"source": "patent US8809526B2", "about": "“Synthesis of cyclopentaquinazolines” (ONYX Pharmaceuticals, Inc., priority 2010, dated 2014)", "assay": "physchem", "type": "physicochemical", "details": "organic solvent or mixture", "procedure": "A 22 L, 3 neck flask was equipped with an overhead stirrer, a N2 inlet, and a type-J Teflon® covered thermocouple. The flask was purged with N2 and charged with the crude alcohol 12 prepared above, acetonitrile (7 L) and triethylamine (1400 mL, 10.0 mol). The batch was cooled to ˜10° C.-15° C. using a cold water bath. To the resulting yellow-green suspension was added solid TBDMSCl (1125 g, 7.50 mol), portionwise over ˜20 minutes. The addition was mildly exothermic causing the internal reaction temperature to rise to ˜20° C. After the addition was complete the reaction was stirred overnight at 20° C. under an atmosphere of N2. The following morning the reaction was judged to be >95% complete by TLC or HPLC. The dark green reaction mixture was filtered through a plasticware filter pot (24″×11″) prepacked with gravity grade silica gel (3 kg-slurried in acetonitrile) and a top and bottom layer of celite 21 (500 grams each). The filter pot was rinsed with acetonitrile (10 L, ACS grade) prior to adding the reaction mixture to the pot. Once the reaction mixture containing green solids was added, the filter pot was rinsed with acetonitrile (80 L, ACS grade), collecting 10 L cuts. The washing operation was monitored by TLC until no more product was detected in the washings. This was concentrated in vacuo to afford 2.2 kg of crude which needed to be purified further by silica gel chromatography. […]", "data": [{"compound": "CC(C)(C)[Si](C)(C)OCc1nc2cc3c(cc2c(=O)[nH]1)C(=O)CC3", "note": "[compound 7, 2-(t-Butyldimethylsiloxymethyl)-4,6-dioxo-3,4,7,8-tetrahydro-3H-cyclopenta[g]quinazoline]", "values": [{"measurement": "solubility", "setting": "solubility in 1:1 hexanes:ethyl acetate", "value": 15, "unit": "mg/mL"}, {"measurement": "solubility", "setting": "solubility in ethyl acetate", "value": "~25", "unit": "mg/mL"}]}]}
